Source: US12178830B2, “Compositions and methods for adoptive cell therapy for cancer” (MEMORIAL SLOAN KETTERING CANCER CENTER, priority 2017, dated 2024)

Experiments:
[1] = target: T1, endogenous glutamate carboxypeptidase expressed in human prostate cells (Homo sapiens, UniProt Q04609); test: Cell Titer-Glo viability of LNCap cells with AMS-glut prodrug (specificity for CPG2); assay type: cell-based
T1 construct: the endogenous glutamate carboxypeptidase expressed in human prostate cells; endogenous in cells; host or cells: LNCap cells
From the text: This prodrug/drug combination was chosen for further development of the SEAKER systems.

HEK293T (kidney) = test: CellTitre Glo in vitro cytotoxicity, HEK293T; assay type: cell-based, human
primary T-cells = test: CellTitre Glo in vitro cytotoxicity, primary T cells; assay type: cell-based, human
[2] = mouse, in vivo
Nalm6 = test: Cell viability, Nalm6; assay type: cell-based
SET2 cells = test: SET2 viability with prodrug plus recombinant enzyme or enzyme-containing supernatant; assay type: cell-based; conditions: supernatant from CPG2-secreting HEK293t cells; control media did not
Protocol: Recombinant CPG2 protein was initially synthesized, purified (FIGS. 18A and 18B), and incubated with increasing concentrations of prodrug in a glutamate release assay (FIG. 17C). Mass spectrometry was used to determine that the glutamate moiety was released from all of the glutamate prodrugs. The in vitro cytotoxicity of the prodrugs (FIG. 17B) were tested against the myeloid leukemia cell line SET2 using a CellTitre Glo® assay (Promega, Madison, WI).
SET2 cells were exposed to increasing concentrations of AMS (square) or glut-AMS with media alone (− control, triangle) or supernatant from CPG2-secreting HEK293t cells (circle). Cell viability was measured by CellTitre-Glo® luminescence assay.
Thus, antigen-dependent expansion of SEAKER T cells results in increased output of enzyme into the extracellular milieu.
To determine to respective enzyme output of the Beta-lactamase constructs relative to the previous CPG2 constructs, a quantitative sandwich ELISA was used to determine the concentration (ng/mL) of purified recombinant CPG2, and a quantitative nitrocefin assay was used to determine the concentration (ng/mL) of purified recombinant Beta-lactamase (FIG. 25A). Cell viability was measured by CellTitre-Glo® luminescence in the presence of prodrug (glut-AMS or ceph-AMS) and varying concentrations of purified recombinant CPG2 or Beta-lactamase (FIG. 25B).

[3] = system: SKOV-3 human ovarian cancer cell line; test: Cell viability, Skov-3; assay type: cell-based
recombinant CPG2 = target: T2, recombinant CPG2 (Pseudomonas sp., UniProt P06621, N222Q/N264Q/N272Q); test: Glutamate release assay (Amplex Red) with recombinant CPG2; assay type: biochemical; conditions: high concentrations (~10 μM), 37° C.
T2 construct: 6xHis (pET151 Directional TOPO leader) (N); made in house; host or cells: E. coli BL21 star
Protocol: FIG. 4 provides exemplary data showing activation of P-AMS (see FIG. 2) by recombinant CPG2 expressed and purified from E. coli. (A) Human Jurkat T cells were incubated with or without P-AMS in the presence of increasing concentration of purified CPG2. Cell viability was measured at 48 hours by CellTitre-Glo luminescence. (B) Recombinant CPG2 was exposed to various concentrations of glutamated AMS prodrug. Following incubation at 37° C. (0.5, 1, 2, and 4 hr.), the reaction was combined with Amplex® Red (converts free glutamate to a fluorescent species) and fluorescent emission was analyzed using a fluorescence multiwell plate scanner.
The CPG2-pET151 vector was transformed into BL21 star E. coli cells and induced with IPTG. Bacteria were homogenized in a French Press and purified by affinity chromatography over Ni++ beads using standard protocols. Imidazole was exchanged via PBS dialysis and protein was purified via desalting spin columns. The expressed and purified CPG2 was assayed to confirm that the active enzyme was a potent converter of glutamated prodrugs. […] Pro-AMS was activated by recombinant CPG2 in vitro. Human Jurkat T cells were incubated with or without P-AMS in the presence of increasing concentration of purified CPG2. Cell viability of the Jurkat cells was measured at 48 hours by CellTitre-Glo® luminescence. […]

[4] = system: panel of cancer cell lines and primary cell lines; test: In vitro cytotoxicity of drug/prodrug pairs against a panel of cell lines; assay type: cell-based
Raji = test: Cell viability, Raji; assay type: cell-based, human
Jurkat T cells = test: Jurkat viability with prodrug plus supernatant from CPG2-secreting HEK293T cells; assay type: cell-based, human; conditions: increasing prodrug, 48 hours, supernatant from CPG2-secreting HEK293T cells
Protocol: (§1) The in vitro cytotoxicity of AMS (structure 1c) and its prodrug variant (structure 1a) was tested against a variety of cell lines using a CellTitre Glo® assay (Promega, Madison, WI). […] Moreover, co-treatment with the prodrug and supernatant from CPG2-transfected HEK293T cells (see Example 3) led to cytotoxicity approaching that of the free drug (50 nM), consistent with CPG2-mediated cleavage of the prodrug to release the active parent drug. […] In contrast, AMS prodrug 1a was not activated by HEK293T cells expressing CPG intracellularly, which likely attributed to poor cell-penetrance of the prodrug due to the free bis-anionic gluatamate moiety.
Jurkat T cells were exposed to increasing concentrations of AMS (circle) or Pro-AMS with media alone (triangle) or supernatant from CPG2-secreting HEK293T cells (square). Cell viability was measured at 48 hours by CellTitre-Glo® luminescence assay.
Jurkat T cells were exposed to increasing concentrations of ZD2767P with media alone (triangle) or supernatant from CPG2-secreting HEK293T cells (square). Cell viability was measured at 48 hours by CellTitre-Glo® luminescence assay.

Jurkat (T cell) = test: CellTitre Glo in vitro cytotoxicity, Jurkat; assay type: cell-based, human
[5] = system: myeloid leukemia cell line SET2; test: CellTitre Glo in vitro cytotoxicity, SET2; assay type: cell-based
[6] = system: human epithelial CACO-2 cells; test: Cell permeability in CACO-2 cells; assay type: in vitro ADME
[7] = system: HEK293T cells expressing CPG2; test: HEK293T cells expressing CPG2 variants exposed to P-AMS; assay type: cell-based, human
Protocol: as §1
Expression of CPG2 without a signal peptide (CPG2nosigp) was employed as a control. HEK293t cells stably transfected with CPG2 variants were exposed to P-AMS ([…]) for 48 hours and analyzed by bright field microscopy (FIG. 9A). Cells were exposed to varying concentrations of P-AMS and cell viability was analyzed at 48 hr post treatment (FIG. 9B).

With `NS(=O)(=O)OC[C@H]1O[C@@H](n2cnc3c(NC(=O)N[C@@H](CCC(=O)O)C(=O)O)ncnc32)[C@H](O)[C@@H]1O` [P-AMS, ((9-((2R,3R,4S,5R)-3,4-dihydroxy-5-((sulfamoyloxy)methyl)tetrahydrofuran-2-yl)-9H-purin-6-yl)carbamoyl)-L-glutamic acid] the “stability to endogenous glutamate carboxypeptidase” value [1] was “remained stable”, the “Selective Index” value (HEK293T (kidney); HEK293t, prodrug vs AMS) was over 7.5 and the IC50 (HEK293T (kidney); Homo sapiens, HEK-293T, read-out: IC50 (cell selectivity data)) was over 5000 nM. The IC50 (primary T-cells; Homo sapiens, T-cell, read-out: IC50 (cell selectivity data)) was over 3000 nM, the “Selective Index” value (primary T-cells; Human T cell, prodrug vs AMS) was over 13.2 and the toxicity [2] was “non-toxic”. The IC50 (Nalm6; Homo sapiens, NALM-6, read-out: IC50 (cell selectivity data)) was over 3000 nM, the “Selective Index” value (Nalm6; Nalm6, prodrug vs AMS) was over 81.3 and the “SET2 cell viability with prodrug and CPG2 supernatant” value (SET2 cells) was “significant decrease in cell viability”. The IC50 ([3]; Homo sapiens, SK-OV-3, read-out: IC50 (cell selectivity data)) was over 5000 nM, the “Selective Index” value ([3]; Skov-3, prodrug vs AMS) was over 14.3 and the “time in which the majority of the prodrug is converted” value (recombinant CPG2) was at most 1 h. It also gave a selective indices ([4]; all cell types tested) of over 100, an IC50 ([4]; prodrug alone, cell lines tested) of over 1000 nM and an SI selectivity index ([4]; prodrug vs free drug, up to) of over 56. The IC50 (Raji; Homo sapiens, read-out: IC50 (cell selectivity data)) was over 3000 nM, the “Selective Index” value (Raji; prodrug vs AMS) was over 170.5 and the “cell viability with prodrug and CPG2 supernatant” value (Jurkat T cells) was “significant decrease in cell viability”. The IC50 (Jurkat (T cell); Homo sapiens, Jurkat, read-out: IC50 (cell selectivity data)) was over 1250 nM, the “Selective Index” value (Jurkat (T cell); Jurkat (T cell), prodrug vs AMS) was over 162.3 and the IC50 ([5]; Homo sapiens, SET-2, read-out: IC50 (cell selectivity data)) was over 3000 nM. For the same molecule, the “Selective Index” value ([5]; Set2, prodrug vs AMS) was over 87.2, the cell permeability [6] was “no cell permeability” and the “activation by cells expressing CPG intracellularly” value ([7]; HEK293T cells expressing CPG intracellularly) was “not activated”. For the same molecule, the “cell death of HEK293T cells stably expressing secreted or transmembrane CPG2” value ([7]; P-AMS, 48 hr, CPG2nosigp control did not) was “significant cell death”.
